Test: Liquid-crystalline properties of single compounds, determined at 10% in nematic host mixture ZLI-4792
Assay type: physicochemical
Details: 10% in host mixture ZLI-4792
Description: Außerdem werden folgende Abkürzungen und Symbole verwendet: Vo Schwellenspannung, kapazitiv [V] bei 20°C, V10 optische Schwelle für 10 % relativen Kontrast [V] bei 20°C, ne außerordentlicher Brechungsindex bei 20°C und 589 nm, no ordentlicher Brechungsindex bei 20°C und 589 nm, Δn optische Anisotropie bei 20°C und 589 nm, ε⊥ dielektrische Suszeptibilität senkrecht zum Direktor bei 20°C und 1 kHz, ε∥ dielektrische Suszeptibilität parallel zum Direktor bei 20°C und 1 kHz, Δε dielektrische Anisotropie bei 20°C und 1 kHz, Kp., T(N,I) Klärpunkt [°C], γ1 Rotationsviskosität bei 20°C [mPa·s], K1 elastische Konstante, "splay"-Deformation bei 20°C [pN], K2 elastische Konstante, "twist"-Deformation bei 20°C [pN], K3 elastische Konstante, "bend"-Deformation bei 20°C [pN], LTS "low temperature stability" (Phase), bestimmt in Testzellen, ton Einschaltzeit [Transmissionsänderung von 10 % auf 90 %) bei 20 °C und definierter Operationsspannung, toff Ausschaltzeit [Transmissionsänderung von 90 % auf 10 %) bei 20 °C, RT Reaktionszeit (ton + toff) HR20 "voltage holding ratio" bei 20°C [%] und HR100 "voltage holding ratio" bei 100°C [%].
Alle physikalischen Eigenschaften werden und wurden nach "Merck Liquid Crystals, Physical Properties of Liquid Crystals", Status Nov. 1997, Merck KGaA, Darmstadt, Deutschland bestimmt und gelten für eine Temperatur von 20°C und An wird bei 589 nm und Δε bei 1 kHz bestimmt, sofern nicht jeweils explizit anders angegeben.
Die flüssigkristallinen Eigenschaften der Einzelverbindungen werden, soweit nicht anders angegeben, in der nematischen Wirtsmischung ZLI-4792 (kommerziell erhältlich von Merck KGaA, Darmstadt) bei einer Konzentration von 10% bestimmt.

In the case of `CCCc1ccc(-c2cc(F)c(-c3ccc(C)s3)c(F)c2)cc1` [PUS-3-1, 2-(3,5-Difluor-4'-propyl-biphenyl-4-yl)-5-methyl-thiophen], the Δε (dielectric anisotropy at 20°C and 1 kHz) is reported as “+3,1”, the Δn (optical anisotropy at 20°C and 589 nm) is reported as 0,3055 and the γ1 (rotational viscosity at 20°C) is reported as 102 mPa·s.

Source: EP2593528B1, “LIQUID-C[…] WITH STABILIZER” (Merck Patent GmbH, priority 2010, dated 2012)
